Where two headings read alike, the source gives them in different places.
What was measured:
[1] = molecular target: Mer kinase (Homo sapiens (Human), UniProt Q12866); test: Mer kinase assay (AlphaScreen); details: read-out: Mer kinase IC50; activity level class
[2] = molecular target: Met kinase (Homo sapiens, UniProt P08581); test: Met kinase assay (AlphaScreen); assay type: biochemical
[3] = test system: Gas6 ligand induced AKT phosphorylation; test: Gas6 ligand induced AKT phosphorylation, western blotting in H1299 NSCLC cells; assay type: cell-based; details: Homo sapiens, NCI-H1299, at 100 nM treatment, 100 ng/mL Gas6, read-out: inhibition activity against Gas6 ligand induced AKT phosphorylation
[4] = molecular target: Axl kinase (Homo sapiens (Human), UniProt P30530); test: Axl kinase assay (AlphaScreen); assay type: biochemical; details: activity level class
[5] = activity level class, read-out: Met kinase IC50

| SMILES | IC50 [1] [µM] | IC50 [2, 5] [µM] | IC50 [4] [µM] | inhibition at 0.1 µM [3] [%] | IC50 [2] [µM] |
| --- | --- | --- | --- | --- | --- |
| COc1nc(Nc2ccc(CN3CCC(C)CC3)cc2)nc2[nH]cc(-c3ccc(NS(=O)(=O)c4cc(F)ccc4F)cc3)c12 [Compound 2, 2,5-difluoro-N-(4-(4-methoxy-2-((4-((4-methylpiperidin-1-yl)methyl)phenyl)amino)-7H-pyrrolo[2,3-d]pyrimidin-5-yl)phenyl)benzene-sulfonamide] | < 0.03 |  | < 0.03 |  | 0.1 to 0.4 |
| COCCOc1nc(Nc2ccc(CN3CCN(C)CC3)cc2)nc2[nH]cc(-c3ccc(OCc4cccnc4)cc3F)c12 [Compound 95, 5-(2-fluoro-4-(pyridin-3-ylmethoxy)phenyl)-4-(2-methoxyethoxy)-N-(4-((4-methylpiperazin-1-yl)methyl)phenyl)-7H-pyrrolo[2,3-d]pyrimidin-2-amine] | > 1 | > 1 | < 0.03 |  |  |
| COCCOc1nc(Nc2ccc(CN3CCC(C)CC3)cc2)nc2[nH]cc(-c3ccc(OCc4ccccn4)cc3F)c12 [Compound 109, 5-(2-fluoro-4-(pyridin-2-ylmethoxy)phenyl)-4-(2-methoxyethoxy)-N-(4-((4-methylpiperidin-1-yl)methyl)phenyl)-7H-pyrrolo[2,3-d]pyrimidin-2-amine] | < 0.03 |  | < 0.03 | > 50 | 0.4 to 1 |
| COCCOc1nc(Nc2ccc(CN3CCN(C)CC3)cc2)nc2[nH]cc(-c3ccc(OCc4ccncc4)cc3F)c12 [Compound 93, 5-(2-fluoro-4-(pyridin-4-ylmethoxy)phenyl)-4-(2-methoxyethoxy)-N-(4-((4-methylpiperazin-1-yl)methyl)phenyl)-7H-pyrrolo[2,3-d]pyrimidin-2-amine] | > 1 | > 1 | < 0.03 | > 50 |  |
| COc1ccc(-c2c[nH]c3nc(Nc4ccc(CN5CCN(C)CC5)cc4)nc(OC)c23)cc1 [Compound 20, 4-methoxy-5-(4-methoxyphenyl)-N-(4-((4-methylpiperazin-1-yl)methyl)phenyl)-7H-pyrrolo[2,3-d] pyrimidin-2-amine] | > 1 |  |  |  |  |
| COCCOc1nc(Nc2ccc(CN3CCN(C)CC3)cc2)nc2[nH]cc(-c3ccc(O)cc3F)c12 [Compound 96, 3-fluoro-4-(4-(2-methoxyethoxy)-2-((4-((4-methylpiperazin-1-yl)methyl)phenyl)amino)-7H-pyrrolo[2,3-d]pyrimidin-5-yl)phenol] | < 0.03 |  | < 0.03 |  | 0.1 to 0.4 |
| COCCOc1nc(Nc2ccc(CN3CCN(C)CC3)cc2)nc2[nH]cc(-c3ccc(S(=O)(=O)N4CCCCC4)cc3)c12 [Compound 98, 4-(2-methoxyethoxy)-N-(4-((4-methylpiperazin-1-yl)methyl)phenyl)-5-(4-(piperidin-1-ylsulfonyl)phenyl)-7H-pyrrolo[2,3-d]pyrimidin-2-amine] | > 1 |  | < 0.03 |  | 0.4 to 1 |

More lines, main results first:

| IC50 [1] [µM] | IC50 [2, 5] [µM] | IC50 [4] [µM] | SMILES | inhibition at 0.1 µM [3] [%] | IC50 [2] [µM] |
| --- | --- | --- | --- | --- | --- |
| > 1 | > 1 | < 0.03 | Cc1nc2ccc(-c3c[nH]c4nc(Nc5ccc(CN6CCN(C)CC6)cc5)nc(OCC5CCCO5)c34)cc2o1 (centres unmarked) [Compound 67, 5-(2-methylbenzo[d]oxazol-6-yl)-N-(4-((4-methylpiperazin-1-yl)methyl)phenyl)-4-((tetrahydrofuran-2-yl)methoxy)-7H-pyrrolo [2,3-d]pyrimidin-2-amine] | > 50 |  |
| > 1 | > 1 | < 0.03 | COCCOc1nc(Nc2ccc(CN3CCN(C)CC3)cc2)nc2[nH]cc(-c3ccc(OCc4cncc(OC)c4)cc3F)c12 [Compound 100, 5-(2-fluoro-4-((5-methoxypyridin-3-yl)methoxy)phenyl)-4-(2-methoxyethoxy)-N-(4-((4-methylpiperazin-1-yl)methyl)phenyl)-7H-pyrrolo[2,3-d]pyrimidin-2-amine] |  |  |
| > 1 | > 1 | < 0.03 | COCCOc1nc(Nc2ccc(CN3CCN(C)CC3)cc2)nc2[nH]cc(-c3ccc(NC(=O)c4cc(C)n(C)n4)cc3)c12 [Compound 76, N-(4-(4-(2-methoxyethoxy)-2-((4-((4-methylpiperazin-1-yl)methyl)phenyl)amino)-7H-pyrrolo[2,3-d]pyrimidin-5-yl)phenyl)-1,5-dimethyl-7H-pyrazole-3-carboxamide] | > 50 |  |
| > 1 | > 1 | < 0.03 | COCCOc1nc(Nc2ccc(CN3CCN(C)CC3)cc2)nc2[nH]cc(-c3ccc(S(=O)(=O)N4CCC4)cc3)c12 [Compound 94, 5-(4-(azetidin-1-ylsulfonyl)phenyl)-4-(2-methoxyethoxy)-N-(4-((4-methylpiperazin-1-yl)methyl)phenyl)-7H-pyrrolo[2,3-d]pyrimidin-2-amine] |  |  |
| > 1 |  |  | COc1nc(Nc2ccc(CN3CCOCC3)cc2)nc2[nH]cc(-c3ccc(S(=O)(=O)N(C)C)cc3)c12 [Compound 7, 4-(4-methoxy-2-((4-(morpholinomethyl)phenyl)amino)-7H-pyrrolo[2,3-d]pyrimidin-5-yl)-N,N-dimethylbenzene-sulfonamide] |  |  |
| > 1 |  |  | COCCOc1nc(Nc2ccc(CN3CCN(C)CC3)cc2)nc2[nH]cc(-c3ccc(S(=O)(=O)C(C)C)cc3)c12 [Compound 89, 5-(4-(isopropylsulfonyl)phenyl)-4-(2-methoxyethoxy)-N-(4-((4-methylpiperazin-1-yl)methyl)phenyl)-7H-pyrrolo[2,3-d]pyrimidin-2-amine] |  |  |
| > 1 |  |  | COCCOc1nc(Nc2ccc(CN3CCN(C)CC3)cc2)nc2[nH]cc(-c3ccc(OCc4ccccc4)cc3F)c12 [Compound 90, 5-(4-(benzyloxy)-2-fluorophenyl)-4-(2-methoxyethoxy)-N-(4-((4-methylpiperazin-1-yl)methyl)phenyl)-7H-pyrrolo[2,3-d]pyrimidin-2-amine] |  |  |
